These molecules were tested against T1, human TLR7 (Homo sapiens, UniProt Q9NYK1) (assay: HEK293-Blue-hTLR-7 cells assay). Conditions: HEK293-Blue-hTLR7 cells, R848 stimulation, 20 hrs, SEAP reporter; read-out: HEK/hTLR7 IC50.
T1 sequence (Q9NYK1 27-1049): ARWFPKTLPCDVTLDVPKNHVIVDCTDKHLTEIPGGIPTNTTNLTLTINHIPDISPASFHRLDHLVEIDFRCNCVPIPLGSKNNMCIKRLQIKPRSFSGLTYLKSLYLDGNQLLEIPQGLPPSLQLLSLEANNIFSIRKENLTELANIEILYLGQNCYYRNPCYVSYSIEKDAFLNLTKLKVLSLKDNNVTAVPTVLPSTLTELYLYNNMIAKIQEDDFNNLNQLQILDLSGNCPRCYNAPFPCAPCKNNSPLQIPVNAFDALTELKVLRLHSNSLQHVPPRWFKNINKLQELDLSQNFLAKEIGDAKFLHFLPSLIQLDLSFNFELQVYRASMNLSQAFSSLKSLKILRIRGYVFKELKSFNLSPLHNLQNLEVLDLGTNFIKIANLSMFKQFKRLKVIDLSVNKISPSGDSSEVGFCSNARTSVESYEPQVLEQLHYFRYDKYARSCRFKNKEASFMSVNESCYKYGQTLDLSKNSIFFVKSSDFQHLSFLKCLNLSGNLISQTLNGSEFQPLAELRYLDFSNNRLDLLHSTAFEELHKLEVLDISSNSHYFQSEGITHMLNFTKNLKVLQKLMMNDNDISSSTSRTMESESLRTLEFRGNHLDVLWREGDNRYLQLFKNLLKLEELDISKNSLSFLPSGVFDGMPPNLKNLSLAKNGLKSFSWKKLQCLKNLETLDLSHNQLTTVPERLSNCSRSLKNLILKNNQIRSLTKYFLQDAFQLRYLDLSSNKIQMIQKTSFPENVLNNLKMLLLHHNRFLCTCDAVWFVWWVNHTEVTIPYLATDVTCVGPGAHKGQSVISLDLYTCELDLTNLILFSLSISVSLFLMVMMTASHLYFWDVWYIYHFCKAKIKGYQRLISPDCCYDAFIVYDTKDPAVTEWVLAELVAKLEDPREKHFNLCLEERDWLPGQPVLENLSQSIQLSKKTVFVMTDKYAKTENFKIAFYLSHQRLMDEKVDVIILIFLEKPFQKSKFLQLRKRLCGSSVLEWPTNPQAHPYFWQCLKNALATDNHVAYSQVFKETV
Type: cell-based
Source text: HEK293-Blue-hTLR-7 Cells Assay:
A stable HEK293-Blue-hTLR-7 cell line was purchased from InvivoGen (Cat. #: hkb-htlr7, San Diego, California, USA). These cells were originally designed for studying the stimulation of human TLR7 by monitoring the activation of NF-κB. A SEAP (secreted embryonic alkaline phosphatase) reporter gene was placed under the control of the IFN-β minimal promoter fused to five NF-κB and AP-1-binding sites. The SEAP was induced by activating NF-κB and AP-1 via stimulating HEK-Blue hTLR7 cells with TLR7 ligands. Therefore the reporter expression was declined by TLR7 antagonist under the stimulation of a ligand, such as R848 (Resiquimod), for incubation of 20 hrs. The cell culture supernatant SEAP reporter activity was determined using QUANTI-Blue™ kit (Cat. #: rep-qb1, Invivogen, San Diego, Ca. USA) at a wavelength of 640 nm, a detection medium that turns purple or blue in the presence of alkaline phosphatase.
HEK293-Blue-hTLR7 cells were incubated at a density of 250,000˜450,000 cells/mL in a volume of 170 μL in a 96-well plate in Dulbecco's Modified Eagle's medium (DMEM) containing 4.5 g/L glucose, 50 U/mL penicillin, […], […], 2 mM L-glutamine, 10% (v/v) heat-inactivated fetal bovine serum with addition of 20 μL test compound 1n a serial dilution in the presence of final DMSO at 1% and 10 μL of 20 uM R848 in above DMEM, perform incubation under 37° C. in a CO2 incubator for 20 hrs. Then 20 μL of the supernatant from each well was incubated with 180 μL Quanti-blue substrate solution at 37° C. for 2 hrs and the absorbance was read at 620-655 nm using a spectrophotometer. The signaling pathway that TLR7 activation leads to downstream NF-κB activation has been widely accepted, and therefore similar reporter assay was modified for evaluating TLR7 antagonist.

Q: How did the IC50 turn out when C[C@@H]1CN(c2ccc(C#N)c3ncccc23)C[C@@H]2c3ccc(N4CC5(CNC5)C4)cc3CN12 [Example 36, 5-[(4R,10bS)-8-(2,6-diazaspiro[3.3]heptan-2-yl)-4-methyl-3,4,6,10b-tetrahydro-1H-pyrazino[2,1-a]isoindol-2-yl]quinoline-8-carbonitrile] was run?
A: Its IC50 is 3.3 nM.

Q: Which IC50 does the source give for C[C@@H]1CN(c2ccc(C#N)c3ncccc23)C[C@@H]2c3ccc(C4CCNCC4)cc3CN12 [Example 9, 5-[(4R,10bS)-4-methyl-8-(4-piperidyl)-3,4,6,10b-tetrahydro-1H-pyrazino[2,1-a]isoindol-2-yl]quinoline-8-carbonitrile] here?
A: The IC50 was < 3.2 nM.

Q: How did the IC50 turn out when C[C@@H]1CN(c2ccc(C#N)n3nccc23)C[C@@H]2c3ccc(N4C[C@@H](N)[C@](C)(O)C4)cc3CN12 [Example 108, 4-[(4R,10bS)-8-[(3R,4R)-4-amino-3-hydroxy-3-methyl-pyrrolidin-1-yl]-4-methyl-3,4,6,10b-tetrahydro-1H-pyrazino[2,1-a]isoindol-2-yl]pyrazolo[1,5-a]pyridine-7-carbonitrile] was run?
A: The IC50 was 17.5 nM.

Q: For CN[C@@H]1CN(c2ccc3c(c2)CN2[C@H](C)CN(c4ccc(C#N)c5ncccc45)C[C@H]32)C[C@H]1O [Example 43, 5-[(4R,10bS)-4-methyl-8-[(3R,4R)-3-hydroxy-4-(methylamino)pyrrolidin-1-yl]-3,4,6,10b-tetrahydro-1H-pyrazino[2,1-a]isoindol-2-yl]quinoline-8-carbonitrile], which IC50 is on record?
A: Its IC50 is 4 nM.

Q: C[C@@H]1CN(c2ccc(C#N)c3ncccc23)C[C@@H]2c3ccc(N4C[C@H](N)[C@@](C)(O)C4)cc3CN12 [Example 45B, 5-[(4R,10bS)-8-[(3S,4S)-4-amino-3-hydroxy-3-methyl-pyrrolidin-1-yl]-4-methyl-3,4,6,10b-tetrahydro-1H-pyrazino[2,1-a]isoindol-2-yl]quinoline-8-carbonitrile] was tested. Which IC50 did it give?
A: The IC50 was 3.3 nM.

Q: How did the IC50 turn out when C[C@@H]1CN(c2ccc(C#N)n3nccc23)C[C@@H]2c3ccc(N4CC[C@@H](N)C4)cc3CN12 [Example 96, 4-[(4R,10bS)-8-[(3R)-3-aminopyrrolidin-1-yl]-4-methyl-3,4,6,10b-tetrahydro-1H-pyrazino[2,1-a]isoindol-2-yl]pyrazolo[1,5-a]pyridine-7-carbonitrile] was run?
A: Its IC50 is 32.6 nM.

Q: For C[C@@H]1CN(c2ccc(C#N)c3ncccc23)C[C@@H]2c3ccc(N4C[C@H](N)[C@@H](F)C4)cc3CN12 [Example 49, 5-[(4R,10bS)-8-[(3S,4S)-3-amino-4-fluoro-pyrrolidin-1-yl]-4-methyl-3,4,6,10b-tetrahydro-1H-pyrazino[2,1-a]isoindol-2-yl]quinoline-8-carbonitrile], which IC50 is on record?
A: Its IC50 is 4.5 nM.

Q: C[C@@H]1CN(c2ccc(C#N)c3ncsc23)C[C@@H]2c3ccc(N4CCNCC4)cc3CN12 [Example 6, 7-[(4R,10bS)-4-methyl-8-piperazin-1-yl-3,4,6,10b-tetrahydro-1H-pyrazino[2,1-a]isoindol-2-yl]-1,3-benzothiazole-4-carbonitrile] was tested. Which IC50 did it give?
A: The IC50 was < 3.2 nM.

Q: For C[C@@H]1CN(c2ccc(C#N)c3ncccc23)C[C@@H]2c3ccc(N4CC5(CCN5)C4)cc3CN12 [Example 37, 5-[(4R,10bS)-8-(1,6-diazaspiro[3.3]heptan-6-yl)-4-methyl-3,4,6,10b-tetrahydro-1H-pyrazino[2,1-a]isoindol-2-yl]quinoline-8-carbonitrile], which IC50 is on record?
A: The IC50 was < 3.2 nM.

Q: For C[C@@H]1CN(c2ccc(C#N)c3ncccc23)C[C@@H]2c3ccc(N4CC(C)(N)C4)cc3CN12 [Example 39, 5-[(4R,10bS)-8-(3-amino-3-methyl-azetidin-1-yl)-4-methyl-3,4,6,10b-tetrahydro-1H-pyrazino[2,1-a]isoindol-2-yl]quinoline-8-carbonitrile], which IC50 is on record?
A: The IC50 was 3 nM.

Q: C[C@@H]1CN(c2ccc(C#N)c3ncccc23)C[C@@H]2c3ccc(NC4CNC4)cc3CN12 [Example 28, 5-[(4R,10S)-8-(azetidin-3-ylamino)-4-methyl-3,4,6,10b-tetrahydro-1H-pyrazino[2,1-a]isoindol-2-yl]quinoline-8-carbonitrile] was tested. Which IC50 did it give?
A: Its IC50 is 15.6 nM.

Q: Which IC50 does the source give for C[C@@H]1CN(c2ccc(C#N)c3ncccc23)C[C@@H]2c3ccc(N4CC5CNCC(C4)O5)cc3CN12 [Example 14, 5-[(4R,10bS)-4-methyl-8-(9-oxa-3,7-diazabicyclo[3.3.1]nonan-3-yl)-3,4,6,10b-tetrahydro-1H-pyrazino[2,1-a]isoindol-2-yl]quinoline-8-carbonitrile] here?
A: Its IC50 is 4.5 nM.

Q: With CO[C@H]1CN(c2ccc3c(c2)CN2[C@H](C)CN(c4ccc(C#N)n5nccc45)C[C@H]32)C[C@@H]1N [Example 95, 4-[(4R,10bS)-8-[(3S,4S)-3-amino-4-methoxy-pyrrolidin-1-yl]-4-methyl-3,4,6,10b-tetrahydro-1H-pyrazino[2,1-a]isoindol-2-yl]pyrazolo[1,5-a]pyridine-7-carbonitrile] as the molecule, how does the IC50 read?
A: The IC50 was 20.8 nM.

Q: With C[C@@H]1CN(c2ccc(C#N)c3ncccc23)C[C@@H]2c3ccc(N4CCNC[C@H](O)C4)cc3CN12 [Example 53A, 5-[(4R,10bS)-8-[(6S)-6-hydroxy-1,4-diazepan-1-yl]-4-methyl-3,4,6,10b-tetrahydro-1H-pyrazino[2,1-a]isoindol-2-yl]quinoline-8-carbonitrile] as the molecule, how does the IC50 read?
A: The IC50 was 3.9 nM.

Q: Which IC50 does the source give for C[C@@H]1CN(c2ccc(C#N)c3ncccc23)C[C@@H]2c3ccc(N4CCOCC(N)C4)cc3CN12 (stereo partly drawn) [Example 54, 5-[(4R,10bS)-8-(6-amino-1,4-oxazepan-4-yl)-4-methyl-3,4,6,10b-tetrahydro-1H-pyrazino[2,1-a]isoindol-2-yl]quinoline-8-carbonitrile] here?
A: The IC50 was 4 nM.

Q: C[C@@H]1CN(c2ccc(C#N)c3ncccc23)C[C@@H]2c3ccc(N4CC5(CN(C)C5)C4)cc3CN12 [Example 38, 5-[(4R,10bS)-4-methyl-8-(6-methyl-2,6-diazaspiro[3.3]heptan-2-yl)-3,4,6,10b-tetrahydro-1H-pyrazino[2,1-a]isoindol-2-yl]quinoline-8-carbonitrile] was tested. Which IC50 did it give?
A: The IC50 was 1.7 nM.

Q: How did the IC50 turn out when C[C@@H]1CN(c2ccc(C#N)c3ncccc23)C[C@@H]2c3ccc(N4CCOC[C@@H](N)C4)cc3CN12 [Example 54B, 5-[(4R,10bS)-8-[(6S)-6-amino-1,4-oxazepan-4-yl]-4-methyl-3,4,6,10b-tetrahydro-1H-pyrazino[2,1-a]isoindol-2-yl]quinoline-8-carbonitrile] was run?
A: The IC50 was 5.7 nM.

Q: CO[C@@H]1CNC[C@H]1Nc1ccc2c(c1)CN1[C@H](C)CN(c3ccc(C#N)c4ncccc34)C[C@H]21 [Example 34, 5-[(4R,10bS)-8-[[(3R,4R)-4-methoxypyrrolidin-3-yl]amino]-4-methyl-3,4,6,10b-tetrahydro-1H-pyrazino[2,1-a]isoindol-2-yl]quinoline-8-carbonitrile] was tested. Which IC50 did it give?
A: Its IC50 is 7.4 nM.

Q: For C[C@@H]1CN(c2ccc(C#N)c3ncccc23)C[C@@H]2c3ccc(N[C@H]4CNC[C@@H]4F)cc3CN12 [Example 31, 5-[(4R,10bS)-8-[[(3S,4S)-4-fluoropyrrolidin-3-yl]amino]-4-methyl-3,4,6,10b-tetrahydro-1H-pyrazino[2,1-a]isoindol-2-yl]quinoline-8-carbonitrile], which IC50 is on record?
A: Its IC50 is 4.1 nM.

Q: How did the IC50 turn out when C[C@@H]1CN(c2ccc(C#N)c3ncccc23)C[C@@H]2c3ccc(N4CCC(N)(CO)C4)cc3CN12 (stereo partly drawn) [Example 19, 5-[(4R,10bS)-8-[3-amino-3-(hydroxymethyl)pyrrolidin-1-yl]-4-methyl-3,4,6,10b-tetrahydro-1H-pyrazino[2,1-a]isoindol-2-yl]quinoline-8-carbonitrile] was run?
A: The IC50 was 3.6 nM.

Source: patent US12157746B2, “Tetrahydro-1H-pyrazino[2,1-a]isoindolylquinoline compounds for the treatment of autoimmune disease” (F. HOFFMANN-LA ROCHE AG, priority 2018, dated 2024)
